Data as given in patent publication US12643892B2, “Pyridazinone compounds for the treatment of neuromuscular diseases” (Edgewise Therapeutics, Inc., priority 2020, dated 2026).

biological target: Skeletal Myofibril ATPase (Rabbit Psoas myofibrils); experiment: Skeletal Myofibril ATPase Assay; type: biochemical; details: PK/LDH-coupled NADH absorbance at 340 nm
Method: Overview: Myosin ATPase activity was assessed by using a coupled reaction system, in which ADP generated by the myosin ATPase function was coupled to the disappearance of NADH through the pyruvate kinase/lactate dehydrogenase (PK-LDH) system. Myosin ATPase activity produces ADP, which was used as a substrate for PK to produce pyruvate and regenerate ATP. The pyruvate was then used as a substrate by LDH to oxidize NADH to NAD+. The rate of the reaction was monitored through the time-dependent disappearance of NADH using absorbance at 340 nm. Inhibition of ATPase activity by the assayed compounds was indicated by a reduced rate of NADH loss, relative to vehicle-treated controls, over the experimental time window. To assess the selectivity of the assayed compounds for skeletal myofibrils, the compounds were counter-screened in cardiac myofibrils.
Materials: The following stock solutions and reagents were used in the Skeletal Myofibril ATPase Assay:
Stock Solutions of pCa buffer. Combine PIPES, CaCl2, and EGTA solutions with 70 mL of water. Adjust pH to 7.0 and bring final volume to 100 mL.
Buffer A & Buffer B. Buffers were stored on ice until use.
Skeletal Myofibril ATPase Assay Procedure: BSA, ATP, NADH, PEP, and DTT solutions were thawed at room temperature, then transferred to ice. Pellet-frozen myofibrils (approximately twice the required volume) were transferred into a sufficiently large tube and capped. Myofibrils were thawed by rolling in a water bath for approximately 15 min at room temperature and cooled on ice. Buffers A and B were prepared by adjusting volumes as necessary for required number of wells and stored on ice. 0.5 μL of the compounds to be assayed were added into wells of a 384-well plate. Buffers A and B were mixed by inversion immediately prior to use, then 25 μL of each was dispensed using a Multidrop dispenser (Buffer A first, then Buffer B). The absorbance within the wells was measured at 340 nm, using a kinetic protocol in which the wells are read every 1.5-2 min for 1 h. The reaction rate was qualitatively assessed by subtracting the minimum absorbance value from the maximum value for each well, using either the SoftMax Pro plate reader software or a spreadsheet program such as Excel. Using GraphPad Prism 8.0, the data was normalized, with 100% activity defined as the absorbance change in the 1% DMSO vehicle wells and 0% assigned to no change in absorbance over the course of the experiment. The normalized data were fit to a variable-slope four-parameter logistic model, constraining the bottom to be 0 or greater. Compounds of Table 1 to 3 were tested and results of the assay appear in Table 4 herein. A=IC50 is less than or equal to 10 μM; B=IC50 is greater than 10 μM and less than 100 μM; C=IC50 is greater than 100 μM.

| Structure (SMILES) | IC50 [µM] |
| --- | --- |
| CCNC(=O)Cn1nc(-c2nnc(-c3cncc(C(F)(F)F)c3)s2)ccc1=O [Compound 19, N-ethyl-2-(6-oxo-3-(5-(5-(trifluoromethyl)pyridin-3-yl)-1,3,4-thiadiazol-2-yl)pyridazin-1(6H)-yl)acetamide] | ≤ 10 |
| O=c1ccc(-c2nc(-c3ccc(Cl)cc3)no2)cn1Cc1ccc(Cl)cc1 [Compound 122, 1-(4-chlorobenzyl)-5-(3-(4-chlorophenyl)-1,2,4-oxadiazol-5-yl)pyridin-2(1H)-one] | > 120 |
| Cc1cccc(-c2noc(-c3ccc(=O)n(Cc4nnc(C)o4)c3)n2)c1 [Compound 100, 1-((5-methyl-1,3,4-oxadiazol-2-yl)methyl)-5-(3-(m-tolyl)-1,2,4-oxadiazol-5-yl)pyridin-2(1H)-one] | ≤ 10 |
| O=c1ccc(-n2cncn2)nn1Cc1csc(Br)c1 [Compound 80, 2-((5-bromothiophen-3-yl)methyl)-6-(1H-1,2,4-triazol-1-yl)pyridazin-3(2H)-one] | 10 to 100 |
| O=c1ccc(-c2nc(C3CC3)no2)cn1Cc1c(F)cccc1Cl [Compound 123, 1-(2-chloro-6-fluorobenzyl)-5-(3-cyclopropyl-1,2,4-oxadiazol-5-yl)pyridin-2(1H)-one] | > 120 |
| O=c1ccc(-c2nc(-c3ccncc3)no2)cn1Cc1ccc(Cl)cc1 [Compound 119, 1-(4-chlorobenzyl)-5-(3-(pyridin-4-yl)-1,2,4-oxadiazol-5-yl)pyridin-2(1H)-one] | > 120 |
| Cc1cccc(-c2noc(-c3ccc(=O)n(Cc4cccnc4)c3)n2)c1 [Compound 94, 1-(pyridin-3-ylmethyl)-5-(3-(m-tolyl)-1,2,4-oxadiazol-5-yl)pyridin-2(1H)-one] | ≤ 10 |
| Cc1noc(-c2ccc(=O)n(Cc3cccc(F)c3)n2)n1 [Compound 72, 2-(3-fluorobenzyl)-6-(3-methyl-1,2,4-oxadiazol-5-yl)pyridazin-3(2H)-one] | 10 to 100 |
| O=c1ccc(-n2cncn2)nn1Cc1ccc(Cl)cc1 [Compound 79, 2-(4-chlorobenzyl)-6-(1H-1,2,4-triazol-1-yl)pyridazin-3(2H)-one] | 10 to 100 |
| CCNC(=O)Cn1nc(-c2nc(-c3cncc(Cl)c3)no2)ccc1=O [Compound 12, 2-(3-(3-(5-chloropyridin-3-yl)-1,2,4-oxadiazol-5-yl)-6-oxopyridazin-1(6H)-yl)-N-ethylacetamide] | ≤ 10 |
| Cc1cccc(-c2noc(-c3ccc(=O)n(Cc4ncc(C)s4)c3)n2)c1 [Compound 92, 1-((5-methylthiazol-2-yl)methyl)-5-(3-(m-tolyl)-1,2,4-oxadiazol-5-yl)pyridin-2(1H)-one] | ≤ 10 |
| Cc1cccc(-c2noc(-c3ccc(=O)n(Cc4ccc(OC(F)F)nc4)c3)n2)c1 [Compound 93, 1-((6-(difluoromethoxy)pyridin-3-yl)methyl)-5-(3-(m-tolyl)-1,2,4-oxadiazol-5-yl)pyridin-2(1H)-one] | ≤ 10 |
| O=c1ccc(-c2nc(-c3cncc(Cl)c3)no2)nn1Cc1cncc(F)c1 [Compound 65, 6-(3-(5-chloropyridin-3-yl)-1,2,4-oxadiazol-5-yl)-2-((5-fluoropyridin-3-yl)methyl)pyridazin-3(2H)-one] | ≤ 10 |
| O=C(Cn1nc(-c2nnc(-c3cc(Cl)ccc3Cl)s2)ccc1=O)NC1CCC1 [Compound 18, N-cyclobutyl-2-(3-(5-(2,5-dichlorophenyl)-1,3,4-thiadiazol-2-yl)-6-oxopyridazin-1(6H)-yl)acetamide] | ≤ 10 |
| CCNC(=O)Cn1nc(-c2nc(-c3cncc(C(F)(F)F)c3)no2)ccc1=O [Compound 10, N-ethyl-2-(6-oxo-3-(3-(5-(trifluoromethyl)pyridin-3-yl)-1,2,4-oxadiazol-5-yl)pyridazin-1(6H)-yl)acetamide] | ≤ 10 |
| O=c1ccc(-c2nc(-c3ccncc3)no2)cn1Cc1ccccc1C(F)(F)F [Compound 120, 5-(3-(pyridin-4-yl)-1,2,4-oxadiazol-5-yl)-1-(2-(trifluoromethyl)benzyl)pyridin-2(1H)-one] | > 120 |
| O=c1ccc(-c2nc(-c3ccc(F)cc3)no2)cn1Cc1cccnc1 [Compound 104, 5-(3-(4-fluorophenyl)-1,2,4-oxadiazol-5-yl)-1-(pyridin-3-ylmethyl)pyridin-2(1H)-one] | ≤ 10 |
| Cc1cccc(-c2noc(-c3ccc(=O)n(Cc4cncc(Cl)c4)c3)n2)c1 [Compound 90, 1-((5-chloropyridin-3-yl)methyl)-5-(3-(m-tolyl)-1,2,4-oxadiazol-5-yl)pyridin-2(1H)-one] | ≤ 10 |
| O=C(Cn1nc(-c2nnc(-c3cncc(Cl)c3)s2)ccc1=O)NC1CCC1 [Compound 20, 2-(3-(5-(5-chloropyridin-3-yl)-1,3,4-thiadiazol-2-yl)-6-oxopyridazin-1(6H)-yl)-N-cyclobutylacetamide] | ≤ 10 |
| O=c1ccc(-n2cncn2)nn1Cc1cccc(Cl)c1 [Compound 78, 2-(3-chlorobenzyl)-6-(1H-1,2,4-triazol-1-yl)pyridazin-3(2H)-one] | 10 to 100 |

Other lines, results leading:

| IC50 [µM] | Structure (SMILES) |
| --- | --- |
| 10 to 100 | Cc1noc(-c2ccc(=O)n(Cc3ccccc3F)n2)n1 [Compound 70, 2-(2-fluorobenzyl)-6-(3-methyl-1,2,4-oxadiazol-5-yl)pyridazin-3(2H)-one] |
| 10 to 100 | O=c1ccc(-c2nc(-c3cccnc3)no2)nn1Cc1ccccc1 [Compound 67, 2-benzyl-6-(3-(pyridin-3-yl)-1,2,4-oxadiazol-5-yl)pyridazin-3(2H)-one] |
| ≤ 10 | CCC(C)(C)NC(=O)Cn1nc(-c2ccc(C)s2)ccc1=O [Compound 82, 2-(3-(5-methylthiophen-2-yl)-6-oxopyridazin-1(6H)-yl)-N-(tert-pentyl)acetamide] |
| ≤ 10 | CCNC(=O)Cn1nc(-c2ncc(-c3cccc(Cl)c3)s2)ccc1=O [Compound 25, 2-(3-(5-(3-chlorophenyl)thiazol-2-yl)-6-oxopyridazin-1(6H)-yl)-N-ethylacetamide] |
| 10 to 100 | O=c1ccc(-c2nc(-c3cccnc3)no2)nn1Cc1ccccc1F [Compound 68, 2-(2-fluorobenzyl)-6-(3-(pyridin-3-yl)-1,2,4-oxadiazol-5-yl)pyridazin-3(2H)-one] |
| > 100 | O=c1ccc(-c2cccs2)nn1C/C=C/c1ccccc1 [Compound 62, 2-cinnamyl-6-(thiophen-2-yl)pyridazin-3(2H)-one] |
| ≤ 10 | CCNC(=O)Cn1nc(-c2nc(-c3cccc(F)c3)no2)ccc1=O [Compound 2, N-ethyl-2-(3-(3-(3-fluorophenyl)-1,2,4-oxadiazol-5-yl)-6-oxopyridazin-1(6H)-yl)acetamide] |
| ≤ 10 | Cc1cnc(-c2ccc(=O)n(CC(=O)NCc3ccccc3Cl)n2)s1 [Compound 26, N-(2-chlorobenzyl)-2-(3-(5-methylthiazol-2-yl)-6-oxopyridazin-1(6H)-yl)acetamide] |
| ≤ 10 | Cc1ccc(-c2ccc(=O)n(CC(=O)NCc3ccccc3F)n2)s1 [Compound 34, N-(2-fluorobenzyl)-2-(3-(5-methylthiophen-2-yl)-6-oxopyridazin-1(6H)-yl)acetamide] |
| > 100 | O=c1ccc(-c2cccs2)nn1Cc1cccc(C(F)(F)F)c1 [Compound 59, 6-(thiophen-2-yl)-2-(3-(trifluoromethyl)benzyl)pyridazin-3(2H)-one] |
| 10 to 100 | COc1ccc(NC(=O)Cn2nc(-c3cccs3)ccc2=O)cc1 [Compound 45, N-(4-methoxyphenyl)-2-(6-oxo-3-(thiophen-2-yl)pyridazin-1(6H)-yl)acetamide] |
| > 100 | O=C(Cn1nc(-c2cccs2)ccc1=O)Nc1ccccc1 [Compound 43, 2-(6-oxo-3-(thiophen-2-yl)pyridazin-1(6H)-yl)-N-phenylacetamide] |
| > 100 | Cc1ccc(-c2ccc(=O)n(CC(=O)NC3CCCCC3)n2)s1 [Compound 44, N-cyclohexyl-2-(3-(5-methylthiophen-2-yl)-6-oxopyridazin-1(6H)-yl)acetamide] |
| ≤ 10 | O=C(Cn1nc(-c2nnc(-c3cccc(Cl)c3)s2)ccc1=O)NC1CCC1 [Compound 23, 2-(3-(5-(3-chlorophenyl)-1,3,4-thiadiazol-2-yl)-6-oxopyridazin-1(6H)-yl)-N-cyclobutylacetamide] |
| 10 to 100 | COc1ccc(NC(=O)Cn2nc(-c3ccco3)ccc2=O)c(OC)c1 [Compound 52, N-(2,4-dimethoxyphenyl)-2-(3-(furan-2-yl)-6-oxopyridazin-1(6H)-yl)acetamide] |
| ≤ 10 | O=c1ccc(-c2nc(-c3cncc(Cl)c3)no2)nn1Cc1ccccc1 [Compound 66, 2-benzyl-6-(3-(5-chloropyridin-3-yl)-1,2,4-oxadiazol-5-yl)pyridazin-3(2H)-one] |
